We go through one molecule from BindingDB's records for doi:10.1021/jm101621u (University of Utah, 2011).

Square brackets hold non-standard residues; d marks the D form. Peptide text beside a SMILES is read from it. d(aThr) = C[C@@H](O)[C@@H](N)C(=O)O; Dhb = C/C=C(\N)C(=O)O

For the assay, the target named is Transient receptor potential cation channel subfamily V member 1 (Homo sapiens, UniProt Q8NER1). Kind of assay: Antagonist activity at human TRPV1 expressed in HEK293 cell assessed as inhibition of capsaicin-induced calcium flux by fluorometric analysis. (In general: Calcium flux is commonly read through the fluorescence of an indicator in the cells.)
Sequence of Transient receptor potential cation channel subfamily V member 1 (Q8NER1 whole entry): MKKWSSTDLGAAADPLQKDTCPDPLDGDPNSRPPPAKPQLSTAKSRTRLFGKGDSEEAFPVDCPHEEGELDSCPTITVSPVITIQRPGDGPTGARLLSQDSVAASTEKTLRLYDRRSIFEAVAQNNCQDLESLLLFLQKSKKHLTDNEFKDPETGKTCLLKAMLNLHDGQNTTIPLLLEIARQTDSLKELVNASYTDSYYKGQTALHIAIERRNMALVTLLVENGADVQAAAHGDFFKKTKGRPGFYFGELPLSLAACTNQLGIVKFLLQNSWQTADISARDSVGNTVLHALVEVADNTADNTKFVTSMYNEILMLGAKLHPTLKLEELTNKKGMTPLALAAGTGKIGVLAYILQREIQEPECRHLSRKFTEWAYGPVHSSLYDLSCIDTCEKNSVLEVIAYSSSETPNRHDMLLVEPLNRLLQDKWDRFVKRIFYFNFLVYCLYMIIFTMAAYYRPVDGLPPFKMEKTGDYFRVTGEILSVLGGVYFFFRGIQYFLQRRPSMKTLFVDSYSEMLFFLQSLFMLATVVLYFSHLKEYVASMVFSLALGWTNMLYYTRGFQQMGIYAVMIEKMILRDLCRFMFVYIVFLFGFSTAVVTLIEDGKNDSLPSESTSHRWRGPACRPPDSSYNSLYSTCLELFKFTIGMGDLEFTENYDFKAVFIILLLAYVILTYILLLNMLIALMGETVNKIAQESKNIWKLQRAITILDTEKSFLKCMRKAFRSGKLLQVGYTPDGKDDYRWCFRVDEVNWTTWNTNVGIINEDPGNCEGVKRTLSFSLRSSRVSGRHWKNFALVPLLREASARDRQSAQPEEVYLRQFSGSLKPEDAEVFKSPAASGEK

`C/C=C(\NC(=O)[C@H](C)NC(=O)[C@@H](NC(=O)[C@H](NC(=O)[C@H](Cc1ccccc1)NC(=O)[C@@H](CC(C)C)NC(=O)[C@@H](Cc1ccccc1)NC(C)=O)[C@@H](C)O)C(C)C)C(=O)O` [Nobilamide A] (Ac-[dF][dL]F[d(aThr)]VA[Dhb]-OH): the concentration for half-maximal inhibition (IC50) was 1660 µM.

As usually defined, the IC50 is the concentration that inhibits the measured activity by half.
